Four molecules from patent publication US8586596B2, “Compounds as cannabinoid receptor ligands” (AbbVie Inc., priority 2010, dated 2013) can be followed below.

One experiment concerns the target T1, rat CB2 receptors (Rattus norvegicus, UniProt Q9QZN9).
T1 construct: expressed in transfected cells; membrane preparation
T1 sequence (Q9QZN9 1-360): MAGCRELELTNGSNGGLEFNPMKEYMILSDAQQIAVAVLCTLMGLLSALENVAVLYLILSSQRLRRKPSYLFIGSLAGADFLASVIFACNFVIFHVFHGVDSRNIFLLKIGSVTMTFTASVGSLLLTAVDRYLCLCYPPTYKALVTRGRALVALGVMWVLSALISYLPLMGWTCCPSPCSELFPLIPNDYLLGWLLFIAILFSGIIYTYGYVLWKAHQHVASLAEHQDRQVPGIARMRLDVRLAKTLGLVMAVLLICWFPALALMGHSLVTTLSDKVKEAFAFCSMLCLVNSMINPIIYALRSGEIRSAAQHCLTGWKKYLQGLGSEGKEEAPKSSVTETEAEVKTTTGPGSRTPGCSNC
In words: CB2 radioligand binding assay ([3H]CP 55,940 competition), rat.

The next experiment addresses T2, human CB2 receptors (Homo sapiens, UniProt P34972).
T2 construct: expressed in transfected cells; membrane preparation
The experiment in a line: CB2 radioligand binding assay ([3H]CP 55,940 competition), human.

The structures appear in SMILES notation. Where two headings read alike, the source gives them in different places.

T2 sequence (P34972 whole entry): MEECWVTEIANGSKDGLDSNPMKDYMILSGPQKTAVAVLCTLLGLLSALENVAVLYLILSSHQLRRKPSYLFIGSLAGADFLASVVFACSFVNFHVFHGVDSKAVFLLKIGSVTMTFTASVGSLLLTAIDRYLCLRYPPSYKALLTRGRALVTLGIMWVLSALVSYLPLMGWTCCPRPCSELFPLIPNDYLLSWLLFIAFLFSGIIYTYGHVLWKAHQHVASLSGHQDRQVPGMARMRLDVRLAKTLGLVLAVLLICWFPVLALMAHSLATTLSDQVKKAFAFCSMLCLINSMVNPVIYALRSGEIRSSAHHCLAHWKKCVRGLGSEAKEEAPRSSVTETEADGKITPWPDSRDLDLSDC

Take `CCCCn1/c(=N/C(=O)c2cc(C(F)(F)F)ccc2OC[C@H](C)O)sc2nccnc21` [Example 2, N-[(2Z)-3-butyl[1,3]thiazolo[4,5-b]pyrazin-2(3H)-ylidene]-2-{[(2S)-2-hydroxypropyl]oxy}-5-(trifluoromethyl)benzamide]: the Ki stood at 4.1 nM at rat CB2 receptors and 2 nM on human CB2 receptors.
As to `CCCCn1/c(=N/C(=O)c2cc(C(F)(F)F)ccc2OC[C@H](C)O)sc2ncncc21` [Example 3, N-[(2Z)-1-butyl[1,3]thiazolo[5,4-d]pyrimidin-2(1H)-ylidene]-2-{[(2S)-2-hydroxypropyl]oxy}-5-(trifluoromethyl)benzamide], the Ki at rat CB2 receptors is 4 nM; on human CB2 receptors, 10 nM.
Taken in the same sequence, the figures for `CCCCn1/c(=N/C(=O)c2cc(C(F)(F)F)ccc2OC[C@H](C)O)sc2cnn(C)c(=O)c21` [Example 4, N-[(2Z)-3-butyl-5-methyl-4-oxo-4,5-dihydro[1,3]thiazolo[4,5-d]pyridazin-2(3H)-ylidene]-2-{[(2S)-2-hydroxypropyl]oxy}-5-(trifluoromethyl)benzamide] were 5 nM and 36 nM.
As for `CCCCn1/c(=N/C(=O)c2cc(C(F)(F)F)ccc2OC[C@H](C)O)sc2ncnc(O)c21` [Example 1, N-[(2Z)-1-butyl-7-hydroxy[1,3]thiazolo[5,4-d]pyrimidin-2(1H)-ylidene]-2-{[(2S)-2-hydroxypropyl]oxy}-5-(trifluoromethyl)benzamide], the Ki is 157 nM on rat CB2 receptors (membranes of HEK293 cells stably expressing rat CB2, 0.5 nM [3H]CP 55,940, read-out: rat CB2 binding (Ki)) and 233 nM at human CB2 receptors (membranes of HEK293 cells stably expressing human CB2, 0.5 nM [3H]CP 55,940, read-out: human CB2 binding (Ki)).

By Ki is commonly meant the dissociation constant of the complex between target and ligand, obtained from inhibition or displacement.
